# Patent publication US12667559B2, “Dihydronaphthyridinone compound, and preparation method therefor and medical use thereof” (GENFLEET THERAPEUTICS (SHANGHAI) INC., priority 2020, dated 2026)
# System: U937 cells
# Test: Inhibitory activity against TNF-α induced programmed cell necrosis (U937 cells, CellTiter-Glo)
# Assay type: cell-based, human
# Details: Homo sapiens, U-937, 48 h, U937 cells, human TNF-α and Q-VD-Oph induced necrosis, 48 hours, survival rate; read-out: U937 IC50
row,Compound,IC50 [nM]
1,"C[C@@H](c1ccccc1OC(F)(F)F)N1CCc2ncc(-c3ccn4nc(N)nc4c3)cc2C1=O [Z46-1, (S)-3-(2-amino-[1,2,4]triazolo[1,5-a]pyridyl-7-yl)-6-(1-(2-(trifluoromethoxy)phenyl)ethyl)-7,8-dihydro-1,6-naphthyridin-5(6H)-one]",7.4
2,Nc1nc2cc(-c3cnc4c(c3)C(=O)N(Cc3cc(F)ccc3OC3COC3)CC4)ccn2n1 [Z79],47.6
3,Nc1nc2cc(-c3cnc4c(c3)C(=O)N(Cc3ncccc3OC3CC3)CC4)ccn2n1 [Z78],59.5
4,"CC(=O)Nc1cn2nc(-c3cnc4c(c3)C(=O)N(Cc3cccc(OC(F)(F)F)c3)CC4)ccc2n1 [Z8, N-(6-(5-oxo-6-(3-(trifluoromethoxy)benzyl)-5,6,7,8-tetrahydro-1,6-naphthyridin-3-yl)imidazo[1,2-b]pyridazin-2-yl)acetamide]",40.3
5,"CC(C)(O)C(=O)N1CC(F)C(N2CCc3ncc(-c4cc(C(F)(F)F)c5c(N)ncnn45)cc3C2=O)C1 (stereo not drawn) [Z33, cis-3-(4-amino-5-(trifluoromethyl)pyrrolo[2,1-f][1,2,4]triazin-7-yl)-6-(4-fluoro-1-(2-hydroxy-2-methylpropionyl)pyrrolidin-3-yl)-7,8-dihydro-1,6-naphthyridin-5(6H)-one]",338
6,Nc1nc2cc(-c3cnc4c(c3)C(=O)N(Cc3cc(F)cc(F)c3OC3CCOCC3)CC4)ccn2n1 [Z70],0.4
7,Nc1nc2cc(-c3cnc4c(c3)C(=O)N(Cc3cc(F)cc(F)c3OCC3CC3)CC4)ccn2n1 [Z67],0.5
8,"CCOC(=O)C(=O)Nc1cn2nc(-c3cnc4c(c3)C(=O)N(Cc3cc(F)cc(F)c3OC3CCOCC3)CC4)ccc2n1 [Z96, ethyl 2-((6-(6-(3,5-difluoro-2-((tetrahydro-2H-pyran-4-yl)oxy)benzyl)-5-oxo-5,6,7,8-tetrahydro-1,6-naphthyridin-3-yl)imidazo[1,2-b]pyridazin-2-yl)amino)-2-oxoacetate]",1.7
9,"C[C@H](c1ccccc1OC(F)(F)F)N1CCc2ncc(-c3ccn4nc(N)nc4c3)cc2C1=O [Z46-2, (R)-3-(2-amino-[1,2,4]triazolo[1,5-a]pyridyl-7-yl)-6-(1-(2-(trifluoromethoxy)phenyl)ethyl)-7,8-dihydro-1,6-naphthyridin-5(6H)-one]",986
10,Cc1cc(-c2cnc3c(c2)C(=O)N(c2cnn(C(C)c4ccc(F)cc4)c2)CC3)n2ncnc(N)c12 (stereo not shown) [Z97],0.2
11,"CC(=O)Nc1cn2nc(-c3cnc4c(c3)C(=O)N(C(C)c3ccccc3OC(F)(F)F)CC4)ccc2n1 (stereo not shown) [Z7, N-(6-(5-oxo-6-(1-(2-(trifluoromethoxy)phenyl)ethyl)-5,6,7,8-tetrahydro-1,6-naphthyridin-3-yl)imidazo[1,2-b]pyridazin-2-yl)acetamide]",3.9
12,Nc1nc2cc(-c3cnc4c(c3)C(=O)N(Cc3cc(C(F)(F)F)ccc3F)CC4)ccn2n1 [Z72],82
13,"O=C(Nc1cn2nc(-c3cnc4c(c3)C(=O)N(Cc3cc(F)cc(F)c3OC3CCOCC3)CC4)ccc2n1)C1CC1 [Z37, N-(6-(6-(3,5-difluoro-2-((tetrahydro-2H-pyran-4-yl)oxy)benzyl)-5-oxo-5,6,7,8-tetrahydro-1,6-naphthyridin-3-yl)imidazo[1,2-b]pyridazin-2-yl)cyclopropanecarboxamide]",0.5
14,Nc1nc2cc(-c3cnc4c(c3)C(=O)N(Cc3cccnc3OC3CC3)CC4)ccn2n1 [Z77],143
15,Nc1nc2cc(-c3cnc4c(c3)C(=O)N(Cc3ccccc3OC3CC3)CC4)ccn2n1 [Z68],4.3
16,Nc1nc2cc(-c3cnc4c(c3)C(=O)N(Cc3cc(F)ccc3OC3CCOC3)CC4)ccn2n1 (stereo not shown) [Z66],2.3
17,Cc1nc2c(cc1-c1ccn3nc(N)nc3c1)C(=O)N(Cc1ncccc1OC1CC1)CC2 [Z93],13
18,"Nc1nc2cc(-c3cnc4c(c3)C(=O)N(Cc3cc(F)ccc3CN3CCOCC3)CC4)ccn2n1 [Z54, 3-(2-amino-[1,2,4]triazolo[1,5-a]pyridyl-7-yl)-6-(5-fluoro-2-(morpholinomethyl)benzyl)-7,8-dihydro-1,6-naphthyridin-5(6H)-one]",12
19,"O=C1c2cc(-c3ccncc3)cnc2CCN1Cc1cc(F)cc(F)c1OC1CCOCC1 [Z11, 6-(3,5-difluoro-2-((tetrahydro-2H-pyran-4-yl)oxy)benzyl)-3-(pyridin-4-yl)-7,8-dihydro-1,6-naphthyridin-5(6H)-one]",31.2
20,Nc1nc2cc(-c3cnc4c(c3)C(=O)N(Cc3cc(F)ccc3OC3CC3)CC4)ccn2n1 [Z76],4.1
21,"Nc1nc2cc(-c3cnc4c(c3)C(=O)N(c3cnn(Cc5ccc(F)cc5)c3)CC4)ccn2n1 [Z52, 3-(2-amino-[1,2,4]triazolo[1,5-a]pyridyl-7-yl)-6-(1-(4-fluorobenzyl)-1H-pyrazol-4-yl)-7,8-dihydro-1,6-naphthyridin-5(6H)-one]",19
22,C[C@@](O)(C(=O)N1CC[C@H](N2CCc3ncc(-c4cc(C(F)(F)F)c5c(N)ncnn45)cc3C2=O)C1)C(F)(F)F [Z32],26.8
23,"CC(=O)Nc1cn2nc(-c3cnc4c(c3)C(=O)N(Cc3cc(OC(F)(F)F)ccc3F)CC4)ccc2n1 [Z9, N-(6-(6-(2-fluoro-5-(trifluoromethoxy)benzyl)-5-oxo-5,6,7,8-tetrahydro-1,6-naphthyridin-3-yl)imidazo[1,2-b]pyridazin-2-yl)acetamide]",10.4
24,CC(c1ccc(F)cc1)n1cc(N2CCc3ncc(-c4cc(C(F)(F)F)c5c(N)ncnn45)cc3C2=O)cn1 (stereo not shown) [Z35],0.3
25,C[C@@](O)(C(=O)N1C[C@@H](F)[C@@H](N2CCc3ncc(-c4ccc5c(N)ncnn45)cc3C2=O)C1)C(F)(F)F [Z31-1],7.4
26,Nc1nc2cc(-c3cnc4c(c3)C(=O)N(Cc3cc(F)ccc3OC3CCOCC3)CC4)ccn2n1 [Z65],0.5

# Same assay, conditions: Homo sapiens, U-937, 48 h, read-out: U937 IC50
row,Compound,IC50 [nM]
1,"CC(=O)Nc1cn2nc(-c3cnc4c(c3)C(=O)N(Cc3cc(F)ccc3OC3CCOCC3)CC4)ccc2n1 [Z21, N-(6-(6-(5-fluoro-2-((tetrahydro-2H-pyran-4-yl)oxy)benzyl)-5-oxo-5,6,7,8-tetrahydro-1,6-naphthyridin-3-yl)imidazo[1,2-b]pyridazin-2-yl)acetamide]",0.6

# Same assay, conditions: U937 cells, human TNF-α and Q-VD-Oph induced necrosis, 48 hours, survival rate; read-out: U937 IC50
row,Compound,IC50 [nM]
1,CC(c1ccc(F)cc1)n1cc(N2CCc3ncc(-c4ccn5nc(N)nc5c4)cc3C2=O)cn1 (stereo not shown) [Z64],2
2,"Cc1cc(-c2cnc3c(c2)C(=O)N([C@@H]2CN(C(=O)[C@@](C)(O)C(F)(F)F)C[C@@H]2F)CC3)n2ncnc(N)c12 (single isomer, unassigned) [Z30-2]",3.4
3,"C[C@@H](c1ccc(F)cc1)n1cc(N2CCc3ncc(-c4ccn5nc(N)nc5c4)cc3C2=O)cn1 (single isomer, unassigned) [Z73]",34
4,"C[C@@](O)(C(=O)N1C[C@@H](N2CCc3ncc(-c4cc(C(F)(F)F)c5c(N)ncnn45)cc3C2=O)[C@@H](F)C1)C(F)(F)F (single isomer, unassigned) [Z27-2]",1.9
5,"CC(=O)Nc1nc2cc(-c3cnc4c(c3)C(=O)N(C(C)c3ccccc3OC(F)(F)F)CC4)ccn2n1 (stereo not shown) [Z49, N-(7-(5-oxo-6-(1-(2-(trifluoromethoxy)phenyl)ethyl)-5,6,7,8-tetrahydro-1,6-naphthyridin-3-yl)-[1,2,4]triazolo[1,5-a]pyridyl-2-yl)acetamide]",26
6,"Cc1cc(-c2cnc3c(c2)C(=O)N([C@@H]2CN(C(=O)[C@@](C)(O)C(F)(F)F)C[C@@H]2F)CC3)n2ncnc(N)c12 [Z30, Cis-3-(4-amino-5-methylpyrrolo[2,1-f][1,2,4]triazin-7-yl)-6-(4-fluoro-1-((R)-3,3,3-trifluoro-2-hydroxy-2-methylpropionyl)pyrrolidin-3-yl)-7,8-dihydro-1,6-naphthyridin-5(6H)-one]",9.1

# Same assay, conditions: U-937; U937 cells, human TNF-α and Q-VD-Oph induced necrosis, 48 hours, survival rate; read-out: U937 IC50
row,Compound,IC50 [nM]
1,"Nc1nc2cc(-c3cnc4c(c3)C(=O)N(Cc3ncccc3OC3CCOCC3)CC4)ccn2n1 [Z62, 3-(2-amino-[1,2,4]triazolo[1,5-a]pyridin-7-yl)-6-((3-((tetrahydro-2H-pyran-4-yl)oxy)pyridin-2-yl)methyl)-7,8-dihydro-1,6-naphthyridin-5(6H)-one]",13
2,"CC(c1cc(OC(F)(F)F)ccc1F)N1CCc2ncc(-c3ccn4nc(N)nc4c3)cc2C1=O (stereo not shown) [Z60, 3-(2-amino-[1,2,4]triazolo[1,5-a]pyridyl-7-yl)-6-(1-(2-fluoro-5-(trifluoromethoxy)phenyl)ethyl)-7,8-dihydro-1,6-naphthyridin-5(6H)-one]",162
3,"CC(c1ccccc1OC(F)(F)F)N1CCc2ncc(-c3ccn4nc(N)nc4c3)cc2C1=O (stereo not shown) [Z46, 3-(2-amino-[1,2,4]triazolo[1,5-a]pyridyl-7-yl)-6-(1-(2-(trifluoromethoxy)phenyl)ethyl)-7,8-dihydro-1,6-naphthyridin-5(6H)-one]",7
4,"CNc1nc2cc(-c3cnc4c(c3)C(=O)N(Cc3cc(OC(F)(F)F)ccc3F)CC4)ccn2n1 [Z59, 6-(2-fluoro-5-(trifluoromethoxy)benzyl)-3-(2-(methylamino)-[1,2,4]triazolo[1,5-a]pyridyl-7-yl)-7,8-dihydro-1,6-naphthyridin-5(6H)-one]",12
5,"Nc1nc2cc(-c3cnc4c(c3)C(=O)N(Cc3cc(OC(F)(F)F)ccc3F)CC4)ccn2n1 [Z48, 3-(2-amino-[1,2,4]triazolo[1,5-a]pyridyl-7-yl)-6-(2-fluoro-5-(trifluoromethoxy)benzyl)-7,8-dihydro-1,6-naphthyridin-5(6H)-one]",6
6,"CC(=O)Nc1cn2nc(-c3cnc4c(c3)C(=O)N(Cc3cc(F)cc(F)c3OC3CC3)CC4)ccc2n1 [Z20, N-(6-(6-(2-cyclopropoxy-3,5-difluorobenzyl)-5-oxo-5,6,7,8-tetrahydro-1,6-naphthyridin-3-yl)imidazo[1,2-b]pyridazin-2-yl)acetamide]",4.4
7,"CC(c1cc(F)ccc1OC(F)(F)F)N1CCc2ncc(-c3ccn4nc(N)nc4c3)cc2C1=O (stereo not shown) [Z55, 3-(2-amino-[1,2,4]triazolo[1,5-a]pyridyl-7-yl)-6-(1-(5-fluoro-2-(trifluoromethoxy)phenyl)ethyl)-7,8-dihydro-1,6-naphthyridin-5(6H)-one]",8
